This is an account of results in paper PMC8683641 (Journal of medicinal chemistry, 2021).

One assay has as its target hCB1 (Homo sapiens, UniProt P21554). Format: binding. Conditions: propyl tail versus pentyl.
Assay [1] has as its target hCB2 Cannabinoid Receptors (Homo sapiens, UniProt P34972). Briefly: [35S]GTPγS binding assay for efficacy, CHO-hCB2 membranes. Format: biochemical. Conditions: from [35S]GTPγS binding. A general note: Binding of GTPγS marks nucleotide exchange on a G protein.
Assay [2] concerns hCB2. Conditions: literature values; cited from earlier work.
Assay [3] has as its system hCB2. Format: binding, human. Particulars: Ki hCB1 / Ki hCB2.

A value given as a limit tells only on which side of the number the result lay.

Chain of hCB2 Cannabinoid Receptors (P34972 whole entry): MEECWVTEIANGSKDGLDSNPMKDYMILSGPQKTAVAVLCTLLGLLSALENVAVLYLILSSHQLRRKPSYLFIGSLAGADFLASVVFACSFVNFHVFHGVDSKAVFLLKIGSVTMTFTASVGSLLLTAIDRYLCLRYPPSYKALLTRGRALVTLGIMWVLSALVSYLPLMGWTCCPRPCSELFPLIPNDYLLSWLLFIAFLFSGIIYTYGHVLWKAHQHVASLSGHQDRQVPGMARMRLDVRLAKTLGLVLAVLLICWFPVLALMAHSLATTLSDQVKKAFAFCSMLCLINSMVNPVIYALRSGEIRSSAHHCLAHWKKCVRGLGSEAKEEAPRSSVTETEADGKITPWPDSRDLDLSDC
Chain of hCB1 (P21554 whole entry): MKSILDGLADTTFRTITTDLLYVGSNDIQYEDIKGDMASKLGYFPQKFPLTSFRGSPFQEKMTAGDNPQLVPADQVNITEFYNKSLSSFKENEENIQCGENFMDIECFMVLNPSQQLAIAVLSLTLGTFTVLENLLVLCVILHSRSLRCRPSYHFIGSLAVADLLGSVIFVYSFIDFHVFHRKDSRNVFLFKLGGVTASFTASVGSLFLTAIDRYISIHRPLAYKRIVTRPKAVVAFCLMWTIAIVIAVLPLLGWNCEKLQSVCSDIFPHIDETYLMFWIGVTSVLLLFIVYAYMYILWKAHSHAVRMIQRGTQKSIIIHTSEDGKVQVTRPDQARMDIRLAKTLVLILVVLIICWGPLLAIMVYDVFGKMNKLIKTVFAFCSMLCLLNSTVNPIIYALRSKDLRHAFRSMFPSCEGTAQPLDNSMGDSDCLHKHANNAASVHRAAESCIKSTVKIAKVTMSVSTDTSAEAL

`CCCn1cc(C(=O)c2ccc3c(c2)CC(C)(C)C3)c2ccccc21` [GBD-005, (2,2-dimethyl-2,3-dihydro-1H-inden-5-yl) (1-propyl-1H-indol-3-yl)methanone]: the “reduction in CB1R affinity” value on hCB1 was greater than 60 fold. Further, in assay [1], the “functional characterization at hCB2” value was “neutral antagonists”.

As to `C#CCCCn1cc(C(=O)c2ccc3c(c2)CC(C)(C)C3)c2ccccc21` [GBD-014, (2,2-Dimethyl-2,3-dihydro-1H-inden-5-yl) (1-(pent-4-yn-1-yl)-1H-indol-3-yl)methanone], the “functional characterization at hCB2” value in assay [1] (listed as 35) is “neutral antagonists”.

Consider `CCCn1cc(C(=O)c2cccc3ccccc23)c2ccccc21` [JWH-072], for which the “SI (CB2 selectivity)” value in the assay with hCB2 [2] is reported as 6.

Consider `CCCCCn1cc(C(=O)c2cccc3c2CC(C)(C)C3)c2ccccc21` [GBD-002, (2,2-dimethyl-2,3-dihydro-1H-inden-4-yl) (1-pentyl-1H-indol-3-yl)methanone], for which the “functional characterization at hCB2” value in assay [1] is reported as “full agonist”.

As for `C#CCCCn1c(C)c(C(=O)c2ccc3c(c2)CC(C)(C)C3)c2ccccc21` [GBD-029, (2,2-Dimethyl-2,3-dihydro-1H-inden-5-yl) (2-methyl-1-(pent-4-yn-1-yl)-1H-indol-3-yl)methanone], in assay [1] (listed as 49), the “functional characterization at hCB2” value was “agonist”.

As for `CCCCCn1cc(C(=O)c2ccc3c(c2)CC(C)(C)C3)c2ccccc21` [GBD-003, (2,2-Dimethyl-2,3-dihydro-1H-inden-5-yl) (1-pentyl-1H-indol-3-yl)methanone], in assay [1], the “functional characterization at hCB2” value was “CB2R antagonist”.

`CCCn1c(C)c(C(=O)c2cccc3ccccc23)c2ccccc21` [JWH-015]: the “SI (CB2 selectivity)” value in the assay with hCB2 [2] is listed as 24.

Consider `C=CCCCn1cc(C(=O)c2ccc3c(c2)CC(C)(C)C3)c2ccccc21` [GBD-013, (2,2-Dimethyl-2,3-dihydro-1H-inden-5-yl) (1-(pent-4-en-1-yl)-1H-indol-3-yl)methanone], for which the “selectivity index (SI) for CB2” value with hCB2 [3] stood at 10.
